Source: patent US11958865B1, “Leucine-rich repeat kinase 2 (LRRK2) inhibitors” (H. Lundbeck A/S, priority 2022, dated 2024)

Columns and labels:
[1] = biological target: T1, LRRK2 WT (Homo sapiens (Human), UniProt Q5S007); test: LRRK2 wild-type ADP-Glo kinase assay; assay type: biochemical; conditions: read-out: LRRK2 WT ADPGlo IC50
[2] = Hepatic microsomal intrinsic clearance assay; assay type: in vitro ADME; conditions: for CLint scaled at 1 μM: pooled liver microsomes, pH 7.4, liver microsomes 0.5 mg/mL, NADPH, 1 hour at 37° C., LLOQ 0.36 L/h/kg
Summary of the method: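 Compounds at 1 μM final were incubated with pooled liver microsomes (0.5 mg/mL) in phosphate buffer pH 7.4 at 37 °C for up to 60 min. Samples taken at 0, 5, 10, 20, 30 and 60 min were quenched with acetonitrile and analysed by LC-MS/MS.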

[3] = Hepatocyte intrinsic clearance assay; assay type: in vitro ADME, Human; conditions: pooled donor, cryopreserved hepatocytes, pH 7.4; human hepatocytes 1×10^6/mL; 0.05 μM; 2 h at 37° C.
Summary of the method: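 Compound (0.05 μM final, 0.05% organic) was incubated with pooled-donor cryopreserved hepatocytes (1×10^6/mL) in supplemented Leibovitz L-15, pH 7.4, at 37° C with shaking for 2 h. Samples were taken from 1 to 120 min, quenched in acetonitrile and analyzed by LC-MS/MS.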

[4] = biological target: LRRK2 G2019S (Homo sapiens (Human), UniProt Q5S007, G2019S); test: LRRK2 G2019S LanthaScreen TR-FRET kinase activity assay; assay type: biochemical; conditions: 250 pM kinase, 1.3 mM ATP, n≥2 tests
[5] = biological target: T1, LRRK2 WT; test: LRRK2 wild-type LanthaScreen TR-FRET kinase activity assay; assay type: biochemical; conditions: 1 nM kinase, 1.3 mM ATP, n≥2 tests
[6] = 0.5 nM kinase, 1.0 mM ATP, IC50=Ki,app+[E]/2, n≥2 tests

T1 sequence (Q5S007 970-2527): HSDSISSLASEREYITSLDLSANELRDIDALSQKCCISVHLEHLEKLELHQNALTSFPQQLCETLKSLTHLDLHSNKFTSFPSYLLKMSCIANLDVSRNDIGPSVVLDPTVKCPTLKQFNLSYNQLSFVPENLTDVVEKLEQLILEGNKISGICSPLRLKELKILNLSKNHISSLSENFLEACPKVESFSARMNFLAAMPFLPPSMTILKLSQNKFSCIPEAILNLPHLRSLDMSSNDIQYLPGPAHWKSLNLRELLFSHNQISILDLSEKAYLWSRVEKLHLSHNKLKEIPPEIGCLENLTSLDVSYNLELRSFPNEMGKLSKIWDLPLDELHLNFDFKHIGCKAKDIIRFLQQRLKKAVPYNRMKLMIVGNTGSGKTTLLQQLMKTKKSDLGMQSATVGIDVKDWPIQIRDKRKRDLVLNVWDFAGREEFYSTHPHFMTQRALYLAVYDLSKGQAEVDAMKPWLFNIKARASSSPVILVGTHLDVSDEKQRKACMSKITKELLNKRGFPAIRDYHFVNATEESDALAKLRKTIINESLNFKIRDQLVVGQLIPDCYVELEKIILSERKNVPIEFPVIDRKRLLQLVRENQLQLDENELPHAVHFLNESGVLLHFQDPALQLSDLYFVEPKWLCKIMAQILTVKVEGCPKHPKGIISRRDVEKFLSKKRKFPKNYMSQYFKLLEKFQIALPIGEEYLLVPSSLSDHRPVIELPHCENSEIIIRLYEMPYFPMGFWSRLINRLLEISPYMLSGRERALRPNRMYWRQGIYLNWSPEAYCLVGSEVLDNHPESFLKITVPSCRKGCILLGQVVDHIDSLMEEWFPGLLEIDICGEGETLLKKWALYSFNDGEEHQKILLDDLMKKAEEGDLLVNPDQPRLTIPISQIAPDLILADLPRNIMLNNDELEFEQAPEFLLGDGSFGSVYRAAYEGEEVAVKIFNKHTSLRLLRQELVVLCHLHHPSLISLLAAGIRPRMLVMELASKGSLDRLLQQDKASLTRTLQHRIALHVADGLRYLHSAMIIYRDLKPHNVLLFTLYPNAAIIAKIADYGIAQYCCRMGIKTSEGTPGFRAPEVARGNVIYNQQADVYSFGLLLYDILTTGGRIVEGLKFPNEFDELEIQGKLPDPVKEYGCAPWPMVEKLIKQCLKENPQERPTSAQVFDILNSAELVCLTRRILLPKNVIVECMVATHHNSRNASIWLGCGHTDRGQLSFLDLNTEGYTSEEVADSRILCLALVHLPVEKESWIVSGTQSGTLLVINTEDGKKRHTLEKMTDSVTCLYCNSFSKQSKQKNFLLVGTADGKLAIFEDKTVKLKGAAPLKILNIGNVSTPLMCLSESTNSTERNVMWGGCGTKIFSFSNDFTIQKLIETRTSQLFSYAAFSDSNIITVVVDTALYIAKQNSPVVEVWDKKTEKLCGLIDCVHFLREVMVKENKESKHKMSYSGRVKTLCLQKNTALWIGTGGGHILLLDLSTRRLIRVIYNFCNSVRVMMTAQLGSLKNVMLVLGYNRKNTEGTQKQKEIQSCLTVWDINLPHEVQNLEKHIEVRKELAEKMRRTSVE
Sequence of LRRK2 G2019S (Q5S007 970-2527 G2019S): as the sequence (Q5S007 970-2527) above, with G1050S counted along it

IC50 [1] | SMILES | IC50 [1, 6] | CLint scaled at 1 μM [2] | CLint scaled at 0.05 μM [3] | IC50 [4] | IC50 [5] | Rate of metabolism classification (liver microsomal CLint) ([2]; based on liver microsomal CLint values of Table 6)
 | COc1ncccc1-n1nc2c(c1C)Nc1ncc3c(Cl)nn(c3n1)CCCO2 [Example 1, 8-Chloro-2-(2-methoxypyridin-3-yl)-3-methyl-2,4,12,13-tetrahydro-11H-5,7-(azenometheno)dipyrazolo[3,4-b:5′,1′-g][1]oxa[4,6,8]triazacycloundecine] | 0.46 nM | 9.67 mL/min/kg | 10.7 mL/min/kg | 0.45 nM | 1.1 nM | 
 | COc1nccc(C)c1-n1nc2c(c1C)Nc1ncc3c(Cl)nn(c3n1)CCCO2 [Example 7, 8-Chloro-2-(2-methoxy-4-methylpyridin-3-yl)-3-methyl-2,4,12,13-tetrahydro-11H-5,7-(azenometheno)dipyrazolo[3,4-b:5′,1′-g][1]oxa[4,6,8]triazacycloundecine] | 0.78 nM | 16.2 mL/min/kg | 7.83 mL/min/kg | 2.3 nM | 6.9 nM | 
 | COc1ncc(C)cc1-n1nc2c(c1C)Nc1ncc3c(Cl)nn(c3n1)CCCO2 [Example 12, 8-Chloro-2-(2-methoxy-5-methylpyridin-3-yl)-3-methyl-2,4,12,13-tetrahydro-11H-5,7-(azenometheno)dipyrazolo[3,4-b:5′,1′-g][1]oxa[4,6,8]triazacycloundecine] | 0.63 nM | 16.8 mL/min/kg | 8 mL/min/kg | 0.13 nM | 0.4 nM | 
 | COc1nc(C)ccc1-n1nc2c(c1C)Nc1ncc3c(Cl)nn(c3n1)CCCO2 [Example 13, 8-Chloro-2-(2-methoxy-6-methylpyridin-3-yl)-3-methyl-2,4,12,13-tetrahydro-11H-5,7-(azenometheno)dipyrazolo[3,4-b:5′,1′-g][1]oxa[4,6,8]triazacycloundecine] | 0.33 nM | 30.3 mL/min/kg | 31.3 mL/min/kg | 0.22 nM | 0.57 nM | moderate to high rate of metabolism
 | Cc1c2c(nn1-c1cccnc1C(C)(F)F)OCCCn1nc(Cl)c3cnc(nc31)N2 [Example 14, 8-Chloro-2-(2-(1,1-difluoroethyl)pyridin-3-yl)-3-methyl-2,4,12,13-tetrahydro-11H-5,7-(azenometheno)dipyrazolo[3,4-b:5′,1′-g][1]oxa[4,6,8]triazacycloundecine] | 1.5 nM | 17.2 mL/min/kg | 7.83 mL/min/kg | 4.2 nM | 14 nM | 
 | Cc1nc(C)c(-n2nc3c(c2C)Nc2ncc4c(Cl)nn(c4n2)CCCO3)cc1F [Example 15, 8-Chloro-2-(5-fluoro-2,6-dimethylpyridin-3-yl)-3-methyl-2,4,12,13-tetrahydro-11H-5,7-(azenometheno)dipyrazolo[3,4-b:5′,1′-g][1]oxa[4,6,8]triazacycloundecine] | 0.66 nM | 12 mL/min/kg | 12 mL/min/kg | 1.4 nM | 4 nM | 
0.6 nM | COc1nc(C)ncc1-n1nc2c(c1C)Nc1ncc3c(Cl)nn(c3n1)CCCO2 [Example 22, 8-Chloro-2-(4-methoxy-2-methylpyrimidin-5-yl)-3-methyl-2,4,12,13-tetrahydro-11H-5,7-(azenometheno)dipyrazolo[3,4-b:5′,1′-g][1]oxa[4,6,8]triazacycloundecine] |  | < 6 mL/min/kg | < 4 mL/min/kg | 0.59 nM | 2.1 nM | 
